Source: ChEMBL document CHEMBL5442219

Assays:
Details in all cases: Compound concentration 10 µM
[1] = target: 5-hydroxytryptamine receptor 7 (Homo sapiens) (UniProt P34969)
Description: PDSP Primary Binding target: HTR7 - Compounds are tested at 10 uM concentration, plate are incubated at room temperature in the dark for 90 minutes. Reaction are stopped by vacuum filtration onto 0.3% polyethyleneimine soaked filter mats using Filtermate harvester. Scintilation cocktail is then melted onto microwave-dried filters on a hot plate and the radio activity is counted in Microbia counter.

[2] = target: Sigma non-opioid intracellular receptor 1 (Homo sapiens) (UniProt Q99720)
Description: PDSP Primary Binding target: SIGMAR1 - Compounds are tested at 10 uM concentration, plate are incubated at room temperature in the dark for 90 minutes. Reaction are stopped by vacuum filtration onto 0.3% polyethyleneimine soaked filter mats using Filtermate harvester. Scintilation cocktail is then melted onto microwave-dried filters on a hot plate and the radio activity is counted in Microbia counter.

[3] = target: T1, Alpha-2A adrenergic receptor (Homo sapiens) (UniProt P08913)
T1 sequence (whole entry): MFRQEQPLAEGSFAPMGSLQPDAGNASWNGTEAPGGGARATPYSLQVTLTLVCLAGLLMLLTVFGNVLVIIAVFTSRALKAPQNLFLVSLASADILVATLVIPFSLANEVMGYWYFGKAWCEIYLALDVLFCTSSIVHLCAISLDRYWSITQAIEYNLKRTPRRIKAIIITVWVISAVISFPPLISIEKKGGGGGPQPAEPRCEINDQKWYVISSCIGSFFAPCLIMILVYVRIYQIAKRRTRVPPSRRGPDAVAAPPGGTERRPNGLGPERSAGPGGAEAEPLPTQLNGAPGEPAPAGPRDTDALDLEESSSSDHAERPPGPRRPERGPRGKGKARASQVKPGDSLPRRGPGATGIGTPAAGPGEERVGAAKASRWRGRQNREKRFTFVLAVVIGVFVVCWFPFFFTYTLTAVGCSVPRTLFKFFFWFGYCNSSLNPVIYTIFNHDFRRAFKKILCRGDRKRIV
Description: PDSP Primary Binding target: ADRA2A - Compounds are tested at 10 uM concentration, plate are incubated at room temperature in the dark for 90 minutes. Reaction are stopped by vacuum filtration onto 0.3% polyethyleneimine soaked filter mats using Filtermate harvester. Scintilation cocktail is then melted onto microwave-dried filters on a hot plate and the radio activity is counted in Microbia counter.

[4] = target: T2, Alpha-1D adrenergic receptor (Homo sapiens) (UniProt P25100)
T2 sequence (whole entry): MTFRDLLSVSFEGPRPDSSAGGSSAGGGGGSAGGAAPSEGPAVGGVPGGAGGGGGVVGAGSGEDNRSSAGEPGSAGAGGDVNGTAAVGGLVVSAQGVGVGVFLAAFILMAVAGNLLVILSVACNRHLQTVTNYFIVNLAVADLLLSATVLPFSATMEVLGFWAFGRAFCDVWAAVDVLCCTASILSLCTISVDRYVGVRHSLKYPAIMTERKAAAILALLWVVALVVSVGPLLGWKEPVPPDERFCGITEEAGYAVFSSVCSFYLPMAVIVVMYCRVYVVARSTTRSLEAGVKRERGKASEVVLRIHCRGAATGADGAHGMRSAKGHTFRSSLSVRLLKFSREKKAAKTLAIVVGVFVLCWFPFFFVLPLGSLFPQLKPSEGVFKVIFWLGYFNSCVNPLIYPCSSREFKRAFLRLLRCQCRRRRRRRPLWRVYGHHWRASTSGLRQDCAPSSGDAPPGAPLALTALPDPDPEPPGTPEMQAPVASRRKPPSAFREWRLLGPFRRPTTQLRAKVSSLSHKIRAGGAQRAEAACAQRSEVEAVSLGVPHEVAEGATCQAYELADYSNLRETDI
Description: PDSP Primary Binding target: ADRA1D - Compounds are tested at 10 uM concentration, plate are incubated at room temperature in the dark for 90 minutes. Reaction are stopped by vacuum filtration onto 0.3% polyethyleneimine soaked filter mats using Filtermate harvester. Scintilation cocktail is then melted onto microwave-dried filters on a hot plate and the radio activity is counted in Microbia counter.

[5] = target: T3, Alpha-2C adrenergic receptor (Homo sapiens) (UniProt P18825)
T3 sequence (whole entry): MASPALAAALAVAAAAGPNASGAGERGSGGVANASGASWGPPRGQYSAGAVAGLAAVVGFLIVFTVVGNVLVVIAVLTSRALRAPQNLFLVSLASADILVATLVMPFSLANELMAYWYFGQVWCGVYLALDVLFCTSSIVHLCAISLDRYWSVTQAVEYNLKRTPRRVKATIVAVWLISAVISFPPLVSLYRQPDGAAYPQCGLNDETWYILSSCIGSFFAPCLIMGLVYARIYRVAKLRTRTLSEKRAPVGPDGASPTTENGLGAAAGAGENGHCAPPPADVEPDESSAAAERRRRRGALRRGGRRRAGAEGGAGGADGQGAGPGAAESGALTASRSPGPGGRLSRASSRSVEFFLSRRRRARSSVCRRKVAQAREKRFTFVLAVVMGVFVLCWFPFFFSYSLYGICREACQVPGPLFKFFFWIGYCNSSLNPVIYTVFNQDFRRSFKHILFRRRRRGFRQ
Description: PDSP Primary Binding target: ADRA2C - Compounds are tested at 10 uM concentration, plate are incubated at room temperature in the dark for 90 minutes. Reaction are stopped by vacuum filtration onto 0.3% polyethyleneimine soaked filter mats using Filtermate harvester. Scintilation cocktail is then melted onto microwave-dried filters on a hot plate and the radio activity is counted in Microbia counter.

[6] = target: D(2) dopamine receptor (Homo sapiens) (UniProt P14416)
Chain of D(2) dopamine receptor (Homo sapiens) (P14416 whole entry): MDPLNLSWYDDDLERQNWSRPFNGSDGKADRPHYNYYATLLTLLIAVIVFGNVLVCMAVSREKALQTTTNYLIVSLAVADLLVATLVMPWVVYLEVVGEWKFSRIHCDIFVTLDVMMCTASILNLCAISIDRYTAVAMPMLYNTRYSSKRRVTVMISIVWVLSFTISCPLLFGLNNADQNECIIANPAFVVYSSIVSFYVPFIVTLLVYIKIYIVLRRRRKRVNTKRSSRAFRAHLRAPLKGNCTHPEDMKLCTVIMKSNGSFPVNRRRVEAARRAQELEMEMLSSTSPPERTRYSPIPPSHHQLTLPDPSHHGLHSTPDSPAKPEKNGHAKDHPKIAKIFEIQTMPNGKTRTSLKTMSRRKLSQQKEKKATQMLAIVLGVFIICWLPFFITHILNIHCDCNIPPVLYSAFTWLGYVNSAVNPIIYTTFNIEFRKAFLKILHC
Description: PDSP Primary Binding target: DRD2 - Compounds are tested at 10 uM concentration, plate are incubated at room temperature in the dark for 90 minutes. Reaction are stopped by vacuum filtration onto 0.3% polyethyleneimine soaked filter mats using Filtermate harvester. Scintilation cocktail is then melted onto microwave-dried filters on a hot plate and the radio activity is counted in Microbia counter.

[7] = target: 5-hydroxytryptamine receptor 1B (Homo sapiens) (UniProt P28222)
Chain of 5-hydroxytryptamine receptor 1B (Homo sapiens) (P28222 whole entry): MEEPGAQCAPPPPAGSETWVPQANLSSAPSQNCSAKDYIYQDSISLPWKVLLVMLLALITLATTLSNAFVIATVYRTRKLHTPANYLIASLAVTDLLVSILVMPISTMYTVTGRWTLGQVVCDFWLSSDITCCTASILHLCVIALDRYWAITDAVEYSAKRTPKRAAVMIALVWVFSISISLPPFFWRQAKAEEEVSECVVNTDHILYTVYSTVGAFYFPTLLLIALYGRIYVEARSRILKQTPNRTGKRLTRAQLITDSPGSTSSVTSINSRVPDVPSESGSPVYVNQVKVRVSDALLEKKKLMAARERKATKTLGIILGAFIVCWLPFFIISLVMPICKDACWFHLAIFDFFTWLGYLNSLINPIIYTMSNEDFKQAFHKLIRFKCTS
Description: PDSP Primary Binding target: HTR1B - Compounds are tested at 10 uM concentration, plate are incubated at room temperature in the dark for 90 minutes. Reaction are stopped by vacuum filtration onto 0.3% polyethyleneimine soaked filter mats using Filtermate harvester. Scintilation cocktail is then melted onto microwave-dried filters on a hot plate and the radio activity is counted in Microbia counter.

[8] = target: Beta-2 adrenergic receptor (Homo sapiens) (UniProt P07550)
Chain of Beta-2 adrenergic receptor (Homo sapiens) (P07550 whole entry, looked up): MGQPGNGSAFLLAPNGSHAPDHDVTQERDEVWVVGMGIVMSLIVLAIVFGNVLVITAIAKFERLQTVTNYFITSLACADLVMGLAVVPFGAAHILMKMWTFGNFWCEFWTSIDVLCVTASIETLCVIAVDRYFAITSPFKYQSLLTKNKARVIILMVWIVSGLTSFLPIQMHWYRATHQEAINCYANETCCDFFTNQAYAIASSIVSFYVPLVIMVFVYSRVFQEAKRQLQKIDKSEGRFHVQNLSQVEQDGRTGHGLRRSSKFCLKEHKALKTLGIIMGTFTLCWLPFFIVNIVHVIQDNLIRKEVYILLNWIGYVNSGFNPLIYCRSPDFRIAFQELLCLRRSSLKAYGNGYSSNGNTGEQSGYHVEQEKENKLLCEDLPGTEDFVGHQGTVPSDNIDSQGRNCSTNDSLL
Description: PDSP Primary Binding target: ADRB2 - Compounds are tested at 10 uM concentration, plate are incubated at room temperature in the dark for 90 minutes. Reaction are stopped by vacuum filtration onto 0.3% polyethyleneimine soaked filter mats using Filtermate harvester. Scintilation cocktail is then melted onto microwave-dried filters on a hot plate and the radio activity is counted in Microbia counter.

[9] = target: Sodium-dependent noradrenaline transporter (Homo sapiens) (UniProt P23975)
Chain of Sodium-dependent noradrenaline transporter (Homo sapiens) (P23975 whole entry): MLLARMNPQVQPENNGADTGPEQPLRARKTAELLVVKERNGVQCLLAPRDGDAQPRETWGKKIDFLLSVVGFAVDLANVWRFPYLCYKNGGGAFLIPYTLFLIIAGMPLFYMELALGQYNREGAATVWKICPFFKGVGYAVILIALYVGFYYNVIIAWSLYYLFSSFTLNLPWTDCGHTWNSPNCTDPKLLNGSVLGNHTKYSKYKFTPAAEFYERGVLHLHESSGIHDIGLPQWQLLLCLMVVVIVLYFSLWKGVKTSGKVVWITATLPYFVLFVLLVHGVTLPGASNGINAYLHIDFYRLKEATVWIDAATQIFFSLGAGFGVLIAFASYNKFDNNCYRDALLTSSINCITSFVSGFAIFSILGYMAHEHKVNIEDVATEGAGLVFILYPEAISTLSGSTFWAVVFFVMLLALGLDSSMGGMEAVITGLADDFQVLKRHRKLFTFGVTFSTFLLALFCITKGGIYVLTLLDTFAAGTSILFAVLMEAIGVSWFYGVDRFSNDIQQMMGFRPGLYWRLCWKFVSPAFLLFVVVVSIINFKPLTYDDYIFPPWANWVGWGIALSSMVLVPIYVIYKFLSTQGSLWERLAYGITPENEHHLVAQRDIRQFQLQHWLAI
Description: PDSP Primary Binding target: SLC6A2 - Compounds are tested at 10 uM concentration, plate are incubated at room temperature in the dark for 90 minutes. Reaction are stopped by vacuum filtration onto 0.3% polyethyleneimine soaked filter mats using Filtermate harvester. Scintilation cocktail is then melted onto microwave-dried filters on a hot plate and the radio activity is counted in Microbia counter.

[10] = target: 5-hydroxytryptamine receptor 1E (Homo sapiens) (UniProt P28566)
Chain of 5-hydroxytryptamine receptor 1E (Homo sapiens) (P28566 whole entry): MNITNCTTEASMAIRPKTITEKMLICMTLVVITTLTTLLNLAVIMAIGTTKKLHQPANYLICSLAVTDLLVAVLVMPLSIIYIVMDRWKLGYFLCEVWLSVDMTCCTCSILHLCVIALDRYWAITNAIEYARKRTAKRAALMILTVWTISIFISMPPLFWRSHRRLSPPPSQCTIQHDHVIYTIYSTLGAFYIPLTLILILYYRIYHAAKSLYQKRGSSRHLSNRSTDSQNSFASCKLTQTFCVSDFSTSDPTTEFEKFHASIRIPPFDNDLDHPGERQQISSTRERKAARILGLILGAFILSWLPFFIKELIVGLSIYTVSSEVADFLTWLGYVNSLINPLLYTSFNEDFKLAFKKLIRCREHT
Description: PDSP Primary Binding target: HTR1E - Compounds are tested at 10 uM concentration, plate are incubated at room temperature in the dark for 90 minutes. Reaction are stopped by vacuum filtration onto 0.3% polyethyleneimine soaked filter mats using Filtermate harvester. Scintilation cocktail is then melted onto microwave-dried filters on a hot plate and the radio activity is counted in Microbia counter.

[11] = target: T4, Muscarinic acetylcholine receptor M5 (Homo sapiens) (UniProt P08912)
T4 sequence (whole entry): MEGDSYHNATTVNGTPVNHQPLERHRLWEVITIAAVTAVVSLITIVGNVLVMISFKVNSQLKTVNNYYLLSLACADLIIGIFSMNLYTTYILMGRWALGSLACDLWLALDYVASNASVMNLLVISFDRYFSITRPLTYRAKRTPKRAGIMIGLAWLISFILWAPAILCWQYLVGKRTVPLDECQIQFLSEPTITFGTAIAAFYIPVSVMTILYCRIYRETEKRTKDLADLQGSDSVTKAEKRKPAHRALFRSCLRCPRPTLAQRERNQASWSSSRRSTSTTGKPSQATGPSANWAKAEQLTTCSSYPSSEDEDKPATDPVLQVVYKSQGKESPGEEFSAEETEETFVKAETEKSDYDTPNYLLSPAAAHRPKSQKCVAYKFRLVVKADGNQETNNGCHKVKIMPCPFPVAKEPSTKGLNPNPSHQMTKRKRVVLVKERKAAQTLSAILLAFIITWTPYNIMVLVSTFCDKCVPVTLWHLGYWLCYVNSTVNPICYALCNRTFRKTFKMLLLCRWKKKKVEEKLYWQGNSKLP
Description: PDSP Primary Binding target: CHRM5 - Compounds are tested at 10 uM concentration, plate are incubated at room temperature in the dark for 90 minutes. Reaction are stopped by vacuum filtration onto 0.3% polyethyleneimine soaked filter mats using Filtermate harvester. Scintilation cocktail is then melted onto microwave-dried filters on a hot plate and the radio activity is counted in Microbia counter.

[12] = target: T5, Alpha-2B adrenergic receptor (Homo sapiens) (UniProt P18089)
T5 sequence (whole entry): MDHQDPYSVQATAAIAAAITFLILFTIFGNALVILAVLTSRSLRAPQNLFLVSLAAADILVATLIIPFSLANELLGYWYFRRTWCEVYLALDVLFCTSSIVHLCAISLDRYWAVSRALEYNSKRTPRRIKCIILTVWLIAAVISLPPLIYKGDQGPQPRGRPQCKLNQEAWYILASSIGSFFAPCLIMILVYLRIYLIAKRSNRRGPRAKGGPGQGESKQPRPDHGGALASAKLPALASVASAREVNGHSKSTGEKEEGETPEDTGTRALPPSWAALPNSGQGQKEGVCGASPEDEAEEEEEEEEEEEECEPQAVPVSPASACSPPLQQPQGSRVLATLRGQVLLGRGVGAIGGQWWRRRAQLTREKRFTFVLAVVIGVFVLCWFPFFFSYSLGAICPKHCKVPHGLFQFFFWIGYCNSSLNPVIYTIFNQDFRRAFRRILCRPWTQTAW
Description: PDSP Primary Binding target: ADRA2B - Compounds are tested at 10 uM concentration, plate are incubated at room temperature in the dark for 90 minutes. Reaction are stopped by vacuum filtration onto 0.3% polyethyleneimine soaked filter mats using Filtermate harvester. Scintilation cocktail is then melted onto microwave-dried filters on a hot plate and the radio activity is counted in Microbia counter.

Chain of 5-hydroxytryptamine receptor 7 (Homo sapiens) (P34969 whole entry): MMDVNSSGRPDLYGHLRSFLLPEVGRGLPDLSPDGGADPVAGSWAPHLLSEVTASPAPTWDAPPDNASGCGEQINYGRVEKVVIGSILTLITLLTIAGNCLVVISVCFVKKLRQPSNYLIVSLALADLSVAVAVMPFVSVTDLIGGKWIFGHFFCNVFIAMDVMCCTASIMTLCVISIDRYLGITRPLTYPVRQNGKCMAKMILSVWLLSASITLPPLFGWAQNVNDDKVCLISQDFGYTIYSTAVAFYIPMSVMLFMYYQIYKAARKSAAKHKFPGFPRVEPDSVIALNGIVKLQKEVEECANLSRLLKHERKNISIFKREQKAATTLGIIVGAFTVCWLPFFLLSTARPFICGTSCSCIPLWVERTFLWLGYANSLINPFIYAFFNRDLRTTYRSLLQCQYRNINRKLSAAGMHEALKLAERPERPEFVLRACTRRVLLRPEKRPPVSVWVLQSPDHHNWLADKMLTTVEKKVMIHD
Chain of Sigma non-opioid intracellular receptor 1 (Homo sapiens) (Q99720 whole entry): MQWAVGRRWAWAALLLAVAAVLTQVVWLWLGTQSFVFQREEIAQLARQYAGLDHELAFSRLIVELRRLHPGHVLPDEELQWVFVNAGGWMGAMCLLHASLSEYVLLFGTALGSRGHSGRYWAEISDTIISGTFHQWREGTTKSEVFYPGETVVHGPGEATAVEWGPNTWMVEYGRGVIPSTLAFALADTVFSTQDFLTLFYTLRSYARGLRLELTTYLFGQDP

Row | SMILES | inhibition [1] [%] | inhibition [2] [%] | inhibition [3] [%] | inhibition [4] [%] | inhibition [5] [%] | inhibition [6] [%] | inhibition [7] [%] | inhibition [8] [%] | inhibition [9] [%] | inhibition [10] [%] | inhibition [11] [%] | inhibition [12] [%]
1 | COc1cccc([C@H](O)C2CCN(CCc3ccc(F)cc3)CC2)c1OC | 34.5 | 3.05 | 33.1 | 34.5 | 26.7 | 4.57 | 27.7 | 5.48 | 45.2 | -0.41 | -8.31 | 71.7
2 | COC(=O)C1=C(C)NC(C)=C(C(=O)OCCCN2CCC(c3ccccc3)(c3ccccc3)CC2)[C@H]1c1cccc([N+](=O)[O-])c1 | 84.6 | 53.5 | 90.1 | 83.9 | 94.8 | 79.2 | 89.2 | 22.1 | 86.5 | 40 | 89.6 | 90
3 | Clc1cccc(COc2cncc(N3CCNCC3)n2)c1 | 87.1 | 96 | 33.7 | 22.3 | 36.9 | 3.43 | 89 | 32.6 | 20.2 | 76 | 85.1 | 36.1
4 | O=S1(=O)c2cccc3cccc(c23)N1CCCN1CCN(c2ccc(F)cc2)CC1 | 90.5 | 89.3 | 96.8 | 92 | 98.7 | 41.2 | 31.4 | 21.3 | 65.1 | -4.51 | 15.9 | 104
5 | COc1cccc([C@@H](C)NCCCc2ccccc2Cl)c1 | 48.8 | 97.4 | 45.1 | 20.3 | 79.9 | 43.9 | 22.4 | -2.01 | 64.6 | 4.34 | 9.55 | 72.4
6 | N#Cc1ccc2[nH]cc(CCCCN3CCN(c4ccc5oc(C(N)=O)cc5c4)CC3)c2c1 | 82.4 | 99.1 | 70 | 75.5 | 76.3 | 79.4 | 56.1 | 56.2 | 98.1 | 21.2 | 30.6 | 47.1
7 | S=C(NCCCc1c[nH]cn1)NCCCN(Cc1ccc(Cl)c(Cl)c1)c1ccc(Br)cn1 | 74.9 | 1.54 | 97.5 | 65.9 | 101 | 17.1 | 93.3 | 40 | 94.1 | 7.46 | 87.6 | 94.8
8 | CN1CC(=O)N=C1NC(=O)Nc1cccc(Cl)c1 | 0.17 | 3.26 | 3.42 | -0.49 | -3.83 | -2.54 | 31.2 | -8.89 | 9.52 | 7.82 | 6.05 | -6.21
9 | CCCCN1CCC(COC(=O)c2cc(Cl)c(N)c3c2OCCO3)CC1 | 40 | 105 | 66.1 | 24.6 | 78.8 | 43.7 | 35.3 | 14.1 | 42.9 | 22.6 | -7.37 | 33.3
10 | CN1C(=O)[C@@H](NC(=O)c2cc3ccccc3[nH]2)N=C(c2ccccc2)c2ccccc21 | 13.6 |  | 11.2 | -0.46 | -0.17 | 4.63 | 27.2 | 4.31 | 28.5 | -6.92 | -5.02 | 34.7
